Among the data in patent US20260103471A1, “CYCLIC UREA THIAZOLYL COMPOUNDS FOR TREATMENT OF HSV” (Assembly Biosciences, Inc., priority 2022, published 2026) are EC50 values, retold here.

The structures appear in SMILES notation. Bounds are passed on as bounds.

The first test relates to HSV-2 G strain. Nature of the test: HSV-2 Antiviral Assay (Vero cells, cell viability). Format: cell-based. To be noted: Human alphaherpesvirus 2, Vero, 120 h, Vero cells, 160 TCID50 HSV-2 G strain, 5 days, cell viability. How it is done:
Vero cells were cultured in Dulbecco's Modified Eagle Medium (DMVEM) supplemented with […] and 100 units/mL penicillin and streptomycin. The cells were passaged 2-3 times per week to maintain sub-confluent densities.
Vero cells were seeded into 96-well plates at a density of 1.0×10^4 cells per well and allowed to attach overnight. Following attachment, the media was replaced with 50 μL of infection medium (DMEM supplemented with 2% fetal bovine serum and 100 units/mL penicillin and streptomycin). A Tecan D300e digital dispenser was then used to add compounds to the culture using an 8-point 3-fold serial dilution format. The DMSO concentration was normalized to 0.5% for all treatments. Following compound addition, 50 μL of infection medium containing 160 TCID50 HSV-2 G strain was added to the cells and incubated at 37° C. for 5 days. After the incubation, 10 μL/well of WST-8 chromogenic reagent was added and the plates incubated at 37° C. for 3 hours. Following the incubation, cell viability was quantified by measuring the absorbance at 460 nm and 620 nm using a Tecan Infinite M1000 Pro plate reader.
Consider `Cc1nc(N2CCCN(c3ccc(-c4cncs4)cc3)C2=O)sc1S(N)(=O)=O` [Compound 49], for which the EC50 – broadly, the concentration giving half of the maximal effect – was 100 to 1000 nM.

`Cc1nc(N2CCCN(c3ccc(-c4cc(Cl)c(F)cn4)cc3)C2=O)sc1S(N)(=O)=O` [Compound 38]: the 50% effective concentration (EC50) lay within 1000 to 5000 nM.

With `Cc1nc(N2CCCCN(c3ccc(-c4cccc5ncsc45)cc3)C2=O)sc1[S@](C)(=N)=O` (single isomer, unassigned) [Compound 430], the concentration giving a half-maximal response (EC50) was < 100 nM.

Regarding `Cc1nc(N2CCCN(c3ccc(-c4ccc(F)c(F)c4)cc3)C2=O)sc1S(N)(=O)=O` [Compound 190], the EC50 fell in the range of 100 to 1000 nM.

As for `Cc1nc(N2CCCCN(c3ccc(-c4cc(F)ccc4F)cc3)C2=O)sc1S(C)(=N)=O` (stereo not shown) [Compound 154], the concentration for a half-maximal effect (EC50) is < 100 nM.

`CN=[S@@](C)(=O)c1sc(N2CCCN(c3ccc(-c4cc(F)ccc4F)cc3)C2=O)nc1C` (single isomer, unassigned) [Compound 152] had an EC50 of 1000 to 5000 nM.

For the compound `CO[C@H]1CN(c2ccc(-c3cc(F)ccc3F)cc2)C(=O)N(c2nc(C)c(S(N)(=O)=O)s2)C1` (single isomer, unassigned) [Compound 359], the EC50 lay in the range of 1000 to 5000 nM.

The compound `Cc1nc(N2CCCN(c3ccc(-c4snc5c(F)cc(F)c(F)c45)cc3)C2=O)sc1S(N)(=O)=O` [Compound 308] returned an EC50 of 100 to 1000 nM.

In turn, `Cc1nc(N2CCCN(c3ccc(-c4cc(F)cc5nc(C#N)sc45)cc3)C2=O)sc1S(N)(=O)=O` [Compound 279] yielded a concentration giving a half-maximal response (EC50) of 100 to 1000 nM.

As to `Cc1nc(N2CCCN(c3ccc(-n4cnc5ccccc54)cc3)C2=O)sc1S(N)(=O)=O` [Compound 94], the 50% effective concentration (EC50) lay in the range of 1000 to 5000 nM.

`COCCCCCCCCCCNS(=O)(=O)c1sc(N2CCCN(c3ccc(-c4cc(F)ccc4F)cc3)C2=O)nc1C` [Compound 421]: the concentration giving a half-maximal response (EC50) was < 100 nM.

Compound `NS(=O)(=O)c1sc(N2CCCN(c3ccc(-c4cc(F)cc5nsnc45)cc3)C2=O)nc1C(F)(F)F` [Compound 438] gave a half-maximal effective concentration (EC50) of 1000 to 5000 nM.

`Cc1nc(N2CCCN(c3ccc(-c4cncc5nn(C)cc45)cc3)C2=O)sc1S(N)(=O)=O` [Compound 271] showed an EC50 of 1000 to 5000 nM.

As to `Cc1nc(N2CC3(COC3)CN(c3ccc(-c4cc(F)ccc4F)cc3)C2=O)sc1[S@](C)(=N)=O` (single isomer, unassigned) [Compound 433], the EC50 was < 100 nM.

Regarding `COc1cc(Cl)c(F)c(-c2ccc(N3CCCN(c4nc(C)c(S(N)(=O)=O)s4)C3=O)cc2)c1` [Compound 218], the concentration giving a half-maximal response (EC50) is < 100 nM.

With `Cc1nc(N2C[C@H](C)CN(c3ccc(-c4ccccc4)cc3)C2=O)sc1S(N)(=O)=O` (single isomer, unassigned) [Compound 327], the EC50 is < 100 nM.

As to `COCCCNS(=O)(=O)c1sc(N2CCCN(c3ccc(-c4cc(F)cc5nsnc45)cc3)C2=O)nc1C` [Compound 419], the 50% effective concentration (EC50) was < 100 nM.

For `Cc1nc(N2CCCN(c3ccc(-c4c(F)ccc5ncsc45)cc3)C2=O)sc1S(N)(=O)=O` [Compound 70], the concentration for a half-maximal effect (EC50) was < 100 nM.

As for `Cc1nc(N2CCCN(c3ccc(-c4ccccc4C(F)(F)F)cc3)C2=O)sc1S(N)(=O)=O` [Compound 196], the EC50 is < 100 nM.

For `Cc1nc(N2CCCN(c3ccc(-c4cc(F)ccc4F)cc3)C2=O)sc1S(=O)(=O)NCC1COC1` [Compound 404], the EC50 was < 100 nM.

The compound `Cc1nc(N2CCCN(c3ccc(-c4ccccc4OC4CC4)cc3)C2=O)sc1S(N)(=O)=O` [Compound 200] returned an EC50 of 100 to 1000 nM.

Take `COCCNS(=O)(=O)c1sc(N2CCCN(c3ccc(-c4cc(F)ccc4F)cc3)C2=O)nc1C` [Compound 387]: the EC50 was < 100 nM.

Compound `CN=S(C)(=O)c1sc(N2CCCN(c3ccc(-c4cc(F)ccc4F)cc3)C2=O)nc1C` (stereo not shown) [Compound 151] registered an EC50 of 100 to 1000 nM.

With `Cc1nc(N2C[C@@H](C)CN(c3ccc(-c4ccccc4)cc3)C2=O)sc1S(N)(=O)=O` (single isomer, unassigned) [Compound 328], the 50% effective concentration (EC50) is < 100 nM.

`Cc1nc(N2CCCN(c3ccc(-c4nccc5c4cnn5C)cc3)C2=O)sc1S(N)(=O)=O` [Compound 261] showed an EC50 of 100 to 1000 nM.

As to `Cc1nc(N2C[C@@H](C)CN(c3ccc(-c4ccccc4F)cc3)C2=O)sc1S(N)(=O)=O` [Compound 317], the EC50 was < 100 nM.

Turning to `Cc1nc(N2CCCN(c3ccc(-c4nccc5ccsc45)cc3)C2=O)sc1S(N)(=O)=O` [Compound 270], the EC50 was < 100 nM.

In the case of `Cc1nc(N2CCCN(c3ccc(-c4cc(C(C)(F)F)cs4)cc3)C2=O)sc1S(N)(=O)=O` [Compound 241], the EC50 lay in the range of 1000 to 5000 nM.

Regarding `Cc1nc(N2CC(C(C)(C)O)CN(c3ccc(-c4snc5ccccc45)cc3)C2=O)sc1S(N)(=O)=O` (stereo not shown) [Compound 348], the EC50 was 100 to 1000 nM.

On to `COc1cc(-c2ccc(N3CCCN(c4nc(C)c(S(N)(=O)=O)s4)C3=O)cc2)c2scnc2c1` [Compound 252], for which the EC50 was < 100 nM.

`Cc1nc(N2CCCN(c3ccc(-c4cccc5c4cnn5S(C)(=O)=O)cc3)C2=O)sc1S(N)(=O)=O` [Compound 57]: the EC50 was 1000 to 5000 nM.

With `Cc1nc(N2CCCN(c3ccc(-c4scnc4C#N)cc3)C2=O)sc1S(N)(=O)=O` [Compound 47], the concentration for a half-maximal effect (EC50) lay within 100 to 1000 nM.

For `Cc1nc(N2C[C@@H](C(F)(F)F)CN(c3ccc(-c4cc(F)ccc4F)cc3)C2=O)sc1S(N)(=O)=O` (single isomer, unassigned) [Compound 371], the EC50 is < 100 nM.

For `CCCS(=N)(=O)c1sc(N2CCCN(c3ccc(-c4cc(F)cc(F)c4F)cc3)C2=O)nc1C` (stereo not shown) [Compound 423], the concentration giving a half-maximal response (EC50) is < 100 nM.

In the case of `Cc1nc(N2CCCN(c3ccc(-c4cccc5c4OCCC5(F)F)cc3)C2=O)sc1S(N)(=O)=O` [Compound 267], the half-maximal effective concentration (EC50) lay in the range of 100 to 1000 nM.

Take `Cc1nc(N2CCCN(c3ccc(-c4cc(C#N)cc5nsnc45)cc3)C2=O)sc1S(N)(=O)=O` [Compound 304]: the EC50 is < 100 nM.

As for `COc1ccc(F)cc1-c1ccc(N2CCCN(c3nc(C)c(S(N)(=O)=O)s3)C2=O)cc1` [Compound 203], the EC50 is < 100 nM.

With `COc1c(F)cc(F)cc1-c1ccc(N2CCCN(c3nc(C(F)(F)F)c(S(N)(=O)=O)s3)C2=O)cc1` [Compound 437], the 50% effective concentration (EC50) was < 100 nM.

Compound `Cc1nc(N2CC(C(N)=O)CN(c3ccc(-c4cc(F)ccc4F)cc3)C2=O)sc1S(N)(=O)=O` (stereo not shown) [Compound 381] displayed a concentration for a half-maximal effect (EC50) of 100 to 1000 nM.

As to `COc1c(F)cc(C#N)cc1-c1ccc(N2CCCN(c3nc(C)c(S(N)(=O)=O)s3)C2=O)cc1` [Compound 226], the concentration giving a half-maximal response (EC50) lay within 100 to 1000 nM.

For `Cc1nc(N2CCCN(c3ccc(-c4cccc5c4OCO5)cc3)C2=O)sc1S(N)(=O)=O` [Compound 81], the EC50 lay in the range of 100 to 1000 nM.

The compound `Cc1nc(N2CCCN(c3ccc(-c4cc(F)ccc4F)cc3)C2=O)sc1S(=O)(=O)Nc1ccc2cc[nH]c2c1` [Compound 407] gave an EC50 of 100 to 1000 nM.

As for `CN=[S@@](C)(=O)c1sc(N2CCCN(c3ccc(-c4ccccc4F)cc3)C2=O)nc1C` (single isomer, unassigned) [Compound 147], the concentration giving a half-maximal response (EC50) was < 100 nM.

The compound `COc1ccncc1-c1ccc(N2CCCN(c3nc(C)c(S(N)(=O)=O)s3)C2=O)cc1` [Compound 233] registered a 50% effective concentration (EC50) of 100 to 1000 nM.

Regarding `NS(=O)(=O)c1sc(N2CCCN(c3ccc(-c4cc(F)ccc4F)cc3)C2=O)nc1CO` [Compound 440, 2-(3-(2′,5′-difluoro-[1,1′-biphenyl]-4-yl)-2-oxotetrahydropyrimidin-1(2H)-yl)-4-(hydroxymethyl)thiazole-5-sulfonamide], the half-maximal effective concentration (EC50) is < 100 nM.

`Cc1nc(N2CCCN(c3ccc(-c4ccccc4/C=C\C#N)cc3)C2=O)sc1S(N)(=O)=O` [Compound 21] had an EC50 of 100 to 1000 nM.

As to `Cc1nc(N2CCCN(c3ccc(-c4ccccc4F)cc3)C2=O)sc1S(=O)(=O)C(F)F` [Compound 412, 1-(5-((difluoromethyl)sulfonyl)-4-methylthiazol-2-yl)-3-(2′-fluoro-[1,1′-biphenyl]-4-yl)tetrahydropyrimidin-2(1H)-one], the EC50 was 100 to 1000 nM.

Regarding `Cc1nc(N2CCCN(c3ccc(-c4cc(F)cc5nc(C(F)(F)F)sc45)cc3)C2=O)sc1S(N)(=O)=O` [Compound 257], the EC50 was < 100 nM.

In the case of `Cc1nc(N2CCCN(c3ccc(-c4cc(C(F)(F)F)cc5c4c(CO)cn5C)cc3)C2=O)sc1S(N)(=O)=O` [Compound 292], the EC50 lay in the range of 1000 to 5000 nM.

As for `Cc1nc(N2CC(CO)CN(c3ccc(-c4cc(F)ccc4F)cc3)C2=O)sc1S(N)(=O)=O` (stereo not shown) [Compound 356], the concentration for a half-maximal effect (EC50) was < 100 nM.

Consider `Cc1nc2c(-c3ccc(N4CCCN(c5nc(C)c(S(N)(=O)=O)s5)C4=O)cc3)cccc2s1` [Compound 72], for which the 50% effective concentration (EC50) was < 100 nM.

As for `Cc1nc(N2CCCN(c3ccc(-c4cccc(-c5ccnn5C)c4)cc3)C2=O)sc1S(N)(=O)=O` [Compound 32], the EC50 was 100 to 1000 nM.

With `Cc1nc(N2CCCN(c3ccc(-c4cc(C#N)ccc4F)cc3)C2=O)sc1S(N)(=O)=O` [Compound 202], the EC50 is < 100 nM.

As to `COC(=O)C1CN(c2ccc(-c3cc(F)ccc3F)cc2)C(=O)N(c2nc(C)c(S(N)(=O)=O)s2)C1` (stereo not shown) [Compound 384], the EC50 was < 100 nM.

Take `Cc1ncsc1-c1ccc(N2CCCN(c3nc(C)c(S(N)(=O)=O)s3)C2=O)cc1` [Compound 50]: the EC50 fell in the range of 100 to 1000 nM.

`Cc1nc(N2CCCN(c3ccc(-c4cc(Cl)cc(F)c4F)cc3)C2=O)sc1S(N)(=O)=O` [Compound 214]: the EC50 is < 100 nM.

`Cc1nc(N2CCCN(c3ccc(-c4cccc(C5CCC5)c4)cc3)C2=O)sc1S(N)(=O)=O` [Compound 199] came in with an EC50 of 100 to 1000 nM.

Staying with this test, now noted: Vero cells, 160 TCID50 HSV-2 G strain, 5 days, cell viability.
`Cc1nc(N2CCCN(c3ccc(-c4cccc5ccnn45)cc3)C2=O)sc1S(N)(=O)=O` [Compound 64]: the EC50 was 100 to 1000 nM.
